Measurements from US11267809B2, “BAF complex modulating compounds and methods of using the same” (THE BOARD OF TRUSTEES OF THE LELAND STANFORD JUNIOR …, priority 2017, dated 2022).

How the values were obtained:
Type in all cases: cell-based, human
HCT116 cells = assay: Synergy viability assay (CellTitre blue, 5 days), HCT116 ARID1A(+/+)
Procedure: To assess drug synergy, the Chou-Talalay method was employed to provide a mechanism-independent method to quantify the synergism of drug interactions. This method combines elements of the Scatchard, Michaelis-menten, Hill, and Henderson-Hasslebalch equations through the law of mass-action^31,32 to generate a quantifiable assessment of synergy. Molecules were tested both independently and then in 25 different combinations in HCT116 cells for 5 days as described above. To determine a combination index (CI), median-effect equations of the two respective molecules were determined from their respective dose responses. The median-effect equation was used to calculate a median-effect dose, and (Dx)ATRi,BAFi values which correspond for the respective doses of the BAFi and ATRi compounds and correlate with a given percentage of cells affected by the individual treatments. Normalized index values (IATRi, IBAFi), and the combination index are a ratio between the treatment dose, and the Dx for a given fraction of affected cells. Combination indices less than 0.9 are considered synergistic, while values ranging from 0.9 to 1.1 are additive, and CIs above 1.1 are antagonistic.
Viability assays were performed in 384-well plates. Cells were plated at 500 cells/well. Each drug was administered in 5-doses with 4 replicates per plate, and each 5×5 drug combination was administered with 8 replicates per plate, 24 hours after seeding. All error bars represent 4 or 8 technical replicates averaged over 3 independent experiments. Media containing fresh drug was replaced every 48 hours. After 5 days, cellular viability was measured using CellTitre blue, as described by the manufacturer.

MCF-7 cells = assay: Synergy viability assay, MCF-7; details: with VE-821 (1.25-20 uM each)
Excerpt: (§1) In ARID1A-deficient tumors, ATR inhibition is thought to trigger premature mitotic entry and chromosome instability that cannot be resolved, resulting in mitotic catastrophe^27. […] We sought to assess whether generic BAF inhibition might sensitize a host of cancers to ATR inhibition. We tested the efficacy of BAFi and ATRi on nine additional human cancer cell lines including seven Breast cancer cell lines (HCC1143, HCC1954, HCC1187, MDAMB-468, MDA-MB-436, Cal-51, MCF-7) and two renal clear cell carcinoma cell lines (A-704, and ACHN). Cal-51 and MCF-7 are both considered aggressive, highly mutated breast cancer cell lines with numerous COSMIC Census gene mutations (FIG. 10). HCC1143 and MDA-MB-468 are sporadic basal-likecancers, HCC1187 is a triple-negative breast cancer, and HCC1954 and MDA-MB-436 are BRCA1 mutant breast cancers which harbor single driver mutations. To assess synergy, each cell line was treated with 5 doses of VE-821 (1.25 uM-20 uM) and 5 doses of Baficillin1 (1.25 uM-20 uM), both independently and with all possible combinations. Like HCT-116 cells, Baficillin1 sensitized MCF-7 and Cal-51 cells lines to treatment with VE-821 (FIG. 6a).
(§2) Viability assays were performed in 384-well plates. Cells were plated at 500 cells/well. […] After 5 days, cellular viability was measured using CellTitre blue, as described by the manufacturer.

[1] = tested on: A-704 renal clear cell carcinoma cell line; assay: Synergy viability assay, A-704; details: with VE-821, PBRM1 mutant line
Excerpt: as §1, §2

Which dose reduction index (HCT116 cells; combination of VE-821 and Baficillin1, higher concentrations) does the source give for CO[C@H]1CN(C)C(=O)c2cc(NC(=O)NC(C)C)ccc2OC[C@H](C)N(Cc2ccc(-c3ccccn3)cc2)C[C@@H]1C [Baficillin1] here?
Its dose reduction index is > 100 fold.

What about the dose reduction index (HCT116 cells; combination of VE-821 and Baficillin1, low concentrations) of the same compound?
Its dose reduction index is “over 10 fold”.

What about the “average combination index (CI)” value (HCT116 cells; with VE-821 (1.25-20 uM each, 25 combinations), 5 days, Chou-Talalay) of the same compound?
Its value is 0.53±0.05.

What about the “combination index (CI MCF-7)” value (MCF-7 cells) of the same compound?
Its value is 0.45±0.04.

What about the “combinatorial effects of BAFi/ATRi” value [1] of the same compound?
The value was “antagonism”.
